In patent publication US7202254B2, “Antibacterial compounds: process for their preparation and pharmaceutical compositions containing them” (Dr. Reddy's Laboratories Limited, priority 2002, dated 2007):
Each block holds one compound with its values, some of them ahead of it.

Structure (SMILES): OCc1cn(-c2ccc(N3CCOCC3)c(F)c2)nn1 [Example 2, [1-(3-Fluoro-4-morpholin-4-yl-phenyl)-1H-[1,2,3]triazol-4-yl]-methanol]
- melting point: 198 °C

Structure (SMILES): [N-]=[N+]=NCc1cn(-c2ccc(N3CCOCC3)c(F)c2)nn1 [Example 12, 4-[4-(4-Azidomethyl-[1,2,3]triazol-1-yl)-2-fluorophenyl]-morpholine]
- melting point: 90 °C

Structure (SMILES): CC(=O)NCc1cn(-c2ccc(N3CCOCC3)c(F)c2)nn1 [Example 42, N-[1-(3-Fluoro-4-morpholin-4-yl-phenyl)-1H-[1,2,3]triazol-4-ylmethyl]-acetamide]
- melting point: 218 °C

Structure (SMILES): CC(=O)NCc1cn(-c2ccc(N3CCSCC3)c(F)c2)nn1 [Example 46, N-[1-(3-Fluoro-4-thiomorpholin-4-yl-phenyl)-1H-[1,2,3]triazol-4-ylmethyl]-acetamide]
- melting point: 207 °C

Structure (SMILES): COC(=O)NCc1cn(-c2ccc(N3CC[S+]([O-])CC3)c(F)c2)nn1 [Example 48, {1-[3-Fluoro-4-(1-oxo-1lambda*4*-thiomorpholin-4-yl)-phenyl]-1H-[1,2,3]triazol-4-ylmethyl}-carbamic acid methyl ester]
- melting point: 218 °C

Structure (SMILES): CC(=O)NCc1cn(-c2ccc(N3CCS(=O)(=O)CC3)c(F)c2)nn1 [Example 49, N-{1-[4-(1,1-Dioxo-1lambda*6*-thiomorpholin-4-yl)-3-fluoro-phenyl]H-triazol-4-ylmethyl}-acetamide]
- melting point: 198 °C

Next, values leading:

- melting point: 190 °C
Structure (SMILES): NCc1cn(-c2cc(F)c(N3CC[S+]([O-])CC3)c(F)c2)nn1 [Example 28, C-{1-[3,5-Difluoro-4-(1-oxo-1lambda*4*-thiomorpholin-4-yl)-phenyl]-1H-[1,2,3]triazol-4-yl}-methylamine]

- melting point: 218 °C
Structure (SMILES): CC(=O)NCc1cn(-c2cc(F)c(N3CCOCC3)c(F)c2)nn1 [Example 41, N-[1-(3,5-Difluoro-4-morpholin-4-yl-phenyl)-1H-[1,2,3]triazol-4-ylmethyl]-acetamide]

- melting point: 210 °C
Structure (SMILES): CC(=O)NCc1cn(-c2cc(F)c(N3CCSCC3)c(F)c2)nn1 [Example 43, N-[1-(3,5-Difluoro-4-thiomorpholin-4-yl-phenyl)-1H-[1,2,3]triazol-4-ylmethyl]-acetamide]

- melting point: 203 °C
Structure (SMILES): CC(=O)NCc1cn(-c2cc(F)c(N3CC[S+]([O-])CC3)c(F)c2)nn1 [Example 44, N-{1-[3,5-Difluoro-4-(1-oxo-1lambda*4*-thiomorpholin-4-yl)-phenyl]-1H-triazol-4-ylmethyl}-acetamide]

- melting point: 197 °C
Structure (SMILES): CC(=O)NCc1cn(-c2cc(F)c(N3CCS(=O)(=O)CC3)c(F)c2)nn1 [Example 45, N-{1-[4-(1,1-Dioxo-1lambda*6*-thiomorpholin-4-yl)-3,5-difluoro-phenyl]-1H-[1,2,3]triazol-4-ylmethyl}-acetamide]

- melting point: 210 °C
Structure (SMILES): CC(=O)NCc1cn(-c2ccc(N3CC[S+]([O-])CC3)c(F)c2)nn1 [Example 47, N-{1-[3-Fluoro-4-(1-oxo-1lambda*4*-thiomorpholin-4-yl)-phenyl]-H-[1,2,3]triazol-4-ylmethyl}-acetamide]

- melting point: 182 to 184 °C
Structure (SMILES): O=CNCc1cn(-c2ccc(N3CC[S+]([O-])CC3)c(F)c2)nn1 [Example 50, N-{1-[3-Fluoro-4-(1-oxo-1lambda*4*-thiomorpholin-4-yl)-phenyl]-1H-[1,2,3]triazol-4-ylmethyl}-formamide]

- melting point: 245 °C
Structure (SMILES): CC(=S)NCc1cn(-c2ccc(N3CC[S+]([O-])CC3)c(F)c2)nn1 [Example 53, N-{1-[3-Fluoro-4-(1-oxo-1lambda*4*-thiomorpholin-4-yl)-phenyl]-1H-[1,2,3]triazol-4-ylmethyl}-thioacetamide]

- melting point: 202 °C
Structure (SMILES): COC(=S)NCc1cn(-c2cc(F)c(N3CC[S+]([O-])CC3)c(F)c2)nn1 [Example 57, 1-[3,5-Difluoro-4-(1-oxo-1lambda*4*-thiomorpholin-4-yl)-phenyl]-1H-{[1,2,3]triazol-4-ylmethyl}-thiocarbamic acid O-methyl ester]
